Ends that are not written are not given here.
Tests used:
[1] = Binding to [^3 H]-heparin; settings: result in words
[2] = test system: FGF receptors of BHK cells; settings: result in words
3T3 cells = test: [^3 H]-thymidine incorporation in serum-starved 3T3 cells challenged with bFGF; format: cell-based; settings: 24 hours with peptide and bFGF challenge, then 5 hours label, result in words
Method: The synthesis of bFGF(97-120)-NH2 having the formula: H-Arg-Leu-Glu-Ser-Asn-Asn-Tyr-Asn-Thr-Tyr-Arg-Ser-Arg-Lys-Tyr-Ser-Ser-Trp- Tyr-Val-Ala-Lys-Arg-NH2 is conducted in a stepwise manner using a Beckman 990 synthesizer and an MBHA resin in the manner described in Example I. The peptide is judged to be substantially pure using TLC and HPLC. Testing is carried out using a culture of serum-starved 3T3 cells which are incubated for 24 hours with the bFGF peptide fragment and a challenge dose of bFGF and then incubated for 5 hours with radioactive [^3 H]-thymidine to determine whether the fragment will inhibit the incorporation of [^3 H]-DNA in the cell line which will be indicative of its inhibiting cell growth.

BAAE cells = format: cell-based, bovine
Method: To determine the effectiveness of the bFGF fragment peptide to inhibit the growth of endothelial cells, the peptide is tested under conditions to measure its ability to modulate both basal cell growth and bFGF-simulated cell proliferation. A bioassay was employed of the type set forth in detail in Gospodarowicz et al., J. Cell Biol., 122, 323-333 (1985), using BAAE cells.
For each test, an initial cell density of between about 0.3-0.5×10^4 cells per well was established in 24-miniwell plates. After 6-8 hours, the cells in each well were treated with a challenge dose of bFGF in the absence, or presence to a varying concentration, of a synthetic FGF antagonist. The precise treatment was repeated 48 hours later. On the fifth day, the cells were digested with trypsin, and the total number of cells in each well was determined using a Coulter particle counter.

Which results are given for “H-Arg-Leu-Glu-Ser-Asn-Asn-Tyr-Asn-Thr-Tyr-Arg-Ser-Arg-Lys-Tyr-Ser-Ser-Trp- Tyr-Val-Ala-Lys-Arg-NH2 (H-RLESNNYNTYRSRKYSSWYVAKR-NH2) [bFGF(97-120)-NH2]”?
binding of the peptide to heparin [1]: binds itself to heparin; inhibition of bFGF binding to BHK cells (receptor) [2]: very strongly inhibits; inhibition of bFGF-induced mitosis ([^3 H]-thymidine incorporation) (3T3 cells): very good inhibition

What does the source list for “H-SNNYNTYRSRKYSSWYVALKR-NH2 [bFGF(100-120)-NH2, H-Ser-Asn-Asn-Tyr-Asn-Thr-Tyr-Arg-Ser-Arg-Lys-Tyr-Ser-Ser-Trp-Tyr-Val-Ala- Leu-Lys-Arg-NH2]”?
binding of the peptide to heparin [1]: binds itself to heparin; inhibition of bFGF binding to BHK cells (receptor) [2]: very strongly inhibits; inhibition of bFGF-induced mitosis ([^3 H]-thymidine incorporation) (3T3 cells): very good inhibition

Which results are given for “H-YRSRKYSSMYVALKR-NH2 [[Met^114]-bFGF(106-120)-NH2, H-Tyr-Arg-Ser-Arg-Lys-Tyr-Ser-Ser-Met-Tyr-Val-Ala-Leu-Lys-Arg-NH2]”?
inhibition of bFGF binding to BHK cells (receptor) [2]: very strongly inhibits; inhibition of bFGF-induced mitosis ([^3 H]-thymidine incorporation) (3T3 cells): very good inhibition

With “H-YRSRKYSSWFVALKR-NH2 [[Phe^115]-bFGF(106-120)-NH2, H-Tyr-Arg-Ser-Arg-Lys-Tyr-Ser-Ser-Trp-Phe-Val-Ala-Leu-Lys-Arg-NH2]” as the substance, how does the “inhibition of bFGF binding to BHK cells (receptor)” value (“inhibition of bFGF binding” for short) [2] read?
The value was “very strongly inhibits”.

And the “inhibition of bFGF-induced mitosis ([^3 H]-thymidine incorporation)” value (from here on “inhibition of bFGF-induced mitosis”) (3T3 cells)?
The value was “very good inhibition”.

Which “binding of the peptide to heparin” value [1] does the source give for “H-YRSRKYSSWY-NH2 [bFGF(106-115)-NH2, H-Tyr-Arg-Ser-Arg-Lys-Tyr-Ser-Ser-Trp-Tyr-NH2]” here?
The value was “binds to heparin”.

And the “inhibition of bFGF binding” value [2]?
The value was “very strongly inhibits”.

What about the “inhibition of bFGF-induced mitosis” value (3T3 cells) of the same substance?
The value was “very good inhibition”.

Which “binding of the peptide to heparin” value [1] does the source give for “H-YRSRKYSSWYVALKR-NH2 [bFGF(106-120)-NH2, H-Tyr-Arg-Ser-Arg-Lys-Tyr-Ser-Ser-Trp-Tyr-Val-Ala-Leu-Lys-Arg-NH2]” here?
The value was “binds to heparin”.

What about the “inhibition of bFGF binding” value [2] of the same substance?
Its value is “very strongly inhibits”.

And the “inhibition of bFGF-induced mitosis” value (3T3 cells)?
The value was “very good inhibition”.

What does the source list for “YKNGGFFLRIHPDGRVDGVREKSDPHIKLQLQAEERGVVSIKGV-NH2 [[Tyr^25]-bFGF(25-68)-NH2]”?
binding of the peptide to heparin [1]: very strong binding affinity; binding affinity for BHK cells [2]: very strong binding affinity; reducing cell population, bFGF-stimulated endothelial cell growth (BAAE cells; bFGF-stimulated growth, manner of Example II, concentration not given): about 95%; reducing cell population, basal endothelial cell growth (BAAE cells; basal growth, manner of Example II, concentration not given): about 86%; antagonist activity to both basal and bFGF-stimulated endothelial cell growth (BAAE cells; result in words): full antagonist activity

Which “binding of the peptide to heparin” value [1] does the source give for “YNTYRSRKYSSWYVALKR-NH2 [bFGF(103-120)-NH2, H-Tyr-Asn-Thr-Tyr-Arg-Ser-Arg-Lys-Tyr-Ser-Ser-Trp-Tyr-Val-Ala-Leu-Lys-Arg- NH2]” here?
The value was “binds to heparin”.

What about the “inhibition of bFGF binding” value [2] of the same substance?
The value was “very strongly inhibits”.

What about the “inhibition of bFGF-induced mitosis” value (3T3 cells) of the same substance?
The value was “very good inhibition”.

Source: US5252718A, “Fibroblast growth factor antagonists” (The Salk Institute for Biological Studies, priority 1992, dated 1993)
